Here are results for 16 compounds from paper PMC8623851, “The Structural Determinants for α1-Adrenergic/Serotonin Receptors Activity among Phenylpiperazine-Hydantoin Derivatives” (Molecules, 2021).

Series [1] deals with α1-receptor. On the set-up: method as in PMID 31383628, PMID 29425815. Particulars: previously reported arylpiperazine hydantoin derivatives; cited from earlier work.
The target of series [2] is α1-receptor. The series is described as follows: Radioligand binding assay: affinity for α1-receptor ([3H]Prazosin, rat cortex). On the procedure: Tissue (rat cortex) was homogenized in 20 volumes of ice-cold 50 mM Tris-HCl buffer, pH 7.6, using an Ultra Turrax T25B homogenizer (IKA, Staufen, Germany). The homogenate was centrifuged at 20,000× g for 20 min. The resulting supernatant was decanted and pellet was resuspended in the same buffer and centrifuged again in the same conditions. The final pellet was resuspended in an appropriate volume of buffer (10 mg/1 mL).
The concentrations of analyzed compounds ranged from 10^−10 to 10^−5 M.
The incubation was terminated by rapid filtration over glass fiber filters FilterMate B (PerkinElmer, Waltham, MA, USA) using a 96-well FilterMate harvester (PerkinElmer, Waltham, MA, USA). Five rapid washes were performed with ice-cold 50 mM Tris-HCl buffer, pH 7.6.
The FilterMate was dried in a microwave and placed in a plastic bag (PerkinElmer, Waltham, MA, USA) and soaked in 10 mL of a liquid scintillation cocktail Ultima Gold MV (PerkinElmer, Waltham, MA, USA). After even distribution of the scintillation cocktail, the filter bag was sealed.
The radioactivity on the filter was measured by a MicroBeta TriLux 1450 scintillation counter (PerkinElmer, Waltham, MA, USA).
Radioligand binding data were analyzed using iterative curve fitting routines GraphPad Prism 3.0 (GraphPad Software, San Diego, CA, USA) using the built-in three parameter logistic model describing ligand competition binding to radioligand-labeled sites.

For a further series, the target named is T1, human 5-HT1A receptor (Homo sapiens, UniProt P08908).
T1 sequence (P08908 1-422): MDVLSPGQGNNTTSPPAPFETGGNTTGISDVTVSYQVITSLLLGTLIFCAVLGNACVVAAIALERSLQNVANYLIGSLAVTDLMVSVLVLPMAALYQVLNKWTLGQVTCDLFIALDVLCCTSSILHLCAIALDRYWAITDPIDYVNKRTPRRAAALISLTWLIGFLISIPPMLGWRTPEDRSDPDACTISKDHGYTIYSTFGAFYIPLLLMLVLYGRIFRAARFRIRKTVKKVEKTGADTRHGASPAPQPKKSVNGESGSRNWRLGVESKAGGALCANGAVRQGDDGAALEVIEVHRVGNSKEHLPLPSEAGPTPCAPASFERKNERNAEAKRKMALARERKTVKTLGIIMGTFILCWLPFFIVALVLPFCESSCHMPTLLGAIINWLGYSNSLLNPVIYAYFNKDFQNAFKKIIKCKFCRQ
As to the kind of experiment: Radioligand binding assay 5-HT1A (HEK-293 membranes, [3H]-8-OH-DPAT).

The target of a further series is human 5-HT7b receptor (Homo sapiens, UniProt P34969). The series is described as follows: Radioligand binding assay 5-HT7 (HEK-293 membranes, [3H]-5-CT).
The target in a further series is human 5-HT6 receptor (Homo sapiens, UniProt P50406). As to the kind of experiment: Radioligand binding assay 5-HT6 (HEK-293 membranes, [3H]-LSD).
The target of a further series is T2, α1B-AR (Homo sapiens, UniProt P35368).
T2 construct: expressed in transfected cells; host or cells: recombinant Aequoscreen cell line (frozen, ready to use)
T2 sequence (P35368 1-520): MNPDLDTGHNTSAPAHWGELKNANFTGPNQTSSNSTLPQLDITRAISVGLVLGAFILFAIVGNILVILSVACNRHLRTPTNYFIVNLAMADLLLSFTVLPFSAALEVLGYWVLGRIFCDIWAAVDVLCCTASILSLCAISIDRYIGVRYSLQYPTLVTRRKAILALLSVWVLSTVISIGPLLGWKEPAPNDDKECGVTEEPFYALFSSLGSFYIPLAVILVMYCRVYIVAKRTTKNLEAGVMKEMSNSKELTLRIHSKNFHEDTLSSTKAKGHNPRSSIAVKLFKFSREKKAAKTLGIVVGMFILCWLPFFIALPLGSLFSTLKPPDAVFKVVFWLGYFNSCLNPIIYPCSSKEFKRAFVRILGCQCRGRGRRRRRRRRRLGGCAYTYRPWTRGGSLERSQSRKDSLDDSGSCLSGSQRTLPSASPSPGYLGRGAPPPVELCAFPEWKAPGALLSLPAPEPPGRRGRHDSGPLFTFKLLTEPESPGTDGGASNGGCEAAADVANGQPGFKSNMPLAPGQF
As to the kind of experiment: Intrinsic (functional) activity for α1B-AR (Aequoscreen). The class given is cell-based. Particulars: antagonist potency; α1B-AR in mouse spleen (table title); 4–7 experimental results; read-out: IC50 ± SEM α1B-AR.

Another series addresses T3, α1A-AR (Homo sapiens, UniProt P35348).
T3 sequence (P35348 1-466): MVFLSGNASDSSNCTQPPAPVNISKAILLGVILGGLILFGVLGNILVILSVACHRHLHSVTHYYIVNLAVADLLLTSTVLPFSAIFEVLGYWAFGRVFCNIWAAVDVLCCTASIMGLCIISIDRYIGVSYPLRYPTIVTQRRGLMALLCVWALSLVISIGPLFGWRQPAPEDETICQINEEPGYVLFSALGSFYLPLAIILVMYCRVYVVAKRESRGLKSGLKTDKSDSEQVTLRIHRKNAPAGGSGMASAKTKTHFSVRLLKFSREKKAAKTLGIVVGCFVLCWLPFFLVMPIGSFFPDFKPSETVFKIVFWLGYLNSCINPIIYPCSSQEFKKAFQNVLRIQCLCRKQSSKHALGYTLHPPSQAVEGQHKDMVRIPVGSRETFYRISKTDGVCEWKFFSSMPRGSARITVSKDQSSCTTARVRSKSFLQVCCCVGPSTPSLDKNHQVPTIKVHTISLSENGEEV
The series is described as follows: Intrinsic (functional) activity for α1A-AR. The class given is cell-based. The note with it: antagonist potency; α1A-AR in rat tail artery (table title); 4–7 experimental results; read-out: IC50 ± SEM α1A-AR.

Like-named read-outs stand apart in the source and are kept apart here.

Sequence of human 5-HT6 receptor (P50406 whole entry): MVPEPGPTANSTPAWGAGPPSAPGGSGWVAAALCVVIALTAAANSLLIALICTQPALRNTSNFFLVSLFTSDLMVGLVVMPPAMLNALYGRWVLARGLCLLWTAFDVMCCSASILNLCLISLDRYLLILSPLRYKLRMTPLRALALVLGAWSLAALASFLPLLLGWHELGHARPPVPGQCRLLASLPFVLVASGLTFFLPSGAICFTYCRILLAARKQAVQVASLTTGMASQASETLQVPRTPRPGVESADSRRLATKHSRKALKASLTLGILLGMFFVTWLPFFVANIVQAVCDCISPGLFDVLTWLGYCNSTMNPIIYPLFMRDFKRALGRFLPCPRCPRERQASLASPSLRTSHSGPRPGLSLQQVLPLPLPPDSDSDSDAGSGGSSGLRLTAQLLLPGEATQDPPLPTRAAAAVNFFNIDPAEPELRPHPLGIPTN
Sequence of human 5-HT7b receptor (P34969 1-432): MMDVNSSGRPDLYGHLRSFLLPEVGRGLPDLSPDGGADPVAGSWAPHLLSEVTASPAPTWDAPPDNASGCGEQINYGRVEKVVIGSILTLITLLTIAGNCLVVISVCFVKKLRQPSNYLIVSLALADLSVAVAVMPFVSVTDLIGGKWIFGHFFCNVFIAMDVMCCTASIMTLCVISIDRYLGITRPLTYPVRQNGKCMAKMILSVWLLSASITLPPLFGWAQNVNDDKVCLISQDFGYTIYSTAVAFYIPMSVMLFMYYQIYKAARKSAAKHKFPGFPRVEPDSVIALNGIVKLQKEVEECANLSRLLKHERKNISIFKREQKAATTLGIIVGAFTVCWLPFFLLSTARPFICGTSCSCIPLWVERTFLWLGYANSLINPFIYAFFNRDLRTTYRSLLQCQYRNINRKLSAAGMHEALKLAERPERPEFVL
Experimental for α1A-AR: An intrinsic activity assay was performed according to the manufacturer of the assay kit (Invitrogen, Thermo Fisher Scientific). […] Of the cell suspension, 32 µL per well was added to the Test Compound wells, the Unstimulated Control wells, and Stimulated Control wells and were incubated per 16–24 h. […] Then, both the agonist and the antagonist plate were incubated in a humidified 37 °C/5% CO2 incubator for 5 h. Then, cells were loaded with 8 µL of LiveBLAzer™-FRET B/G Substrate Mixture (CCF4-AM, Thermo Fisher Scientific) and incubated at room temperature for 2 h.
Experimental for α1B-AR: The Aequoscreen technology uses the recombinant cell lines with stable expression of the α1B or α1D adrenoreceptor and co-expression of apoaequorin and a GPCR as a system to detect the activation of the receptor, following the addition of an agonist, via the measurement of light emission. For measurement, cells (frozen, ready to use) were thawed and resuspended in 10-mL of assay buffer containing 5 μM coelenterazine h. This cell suspension was put in a 10-mL Falcon tube, fixed onto a rotating wheel and incubated overnight at RT° in the dark. Cells were diluted with Assay Buffer to 5000 cells/20 µL. In the first part, agonistic activity was tested. Potential agonists (standard and tested) 2× (50 μL/well), diluted in Assay Buffer, were prepared in 1/2 white polystryrene area plates, and the cell suspension was dispensed in 50 μL volume on the ligands using the injector. The light emitted was recorded for 20 s. In the second part, the agonistic activity was tested. Cells with tested compounds were incubated for 15 min at room temperature.

For `COc1ccc(/C=C2\NC(=O)N(CC(O)CN3CCN(c4ccccc4OC)CC3)C2=O)cc1OC` (stereo not shown) [Compound 1], the Ki at α1-receptor [1] is 44.5 nM.
As to `COc1cccc(/C=C2\NC(=O)N(CC(O)CN3CCN(c4ccccc4OC)CC3)C2=O)c1` (stereo not shown) [Compound 4, (Z)-3-(2-hydroxy-3-(4-(2-methoxyphenyl)piperazin-1-yl)propyl)-5-(3-methoxybenzylidene)imidazolidine-2,4-dione], the Ki at α1-receptor [2] amounted to 187 ± 18.6 nM; on human 5-HT1A receptor, 530 nM; on human 5-HT7b receptor, 283 nM; on human 5-HT6 receptor, 17600 nM.
`CCOc1ccccc1N1CCN(CC(O)CN2C(=O)N/C(=C\c3cccc(OC)c3)C2=O)CC1` (stereo not shown) [Compound 5, (Z)-3-(3-(4-(2-ethoxyphenyl)piperazin-1-yl)-2-hydroxypropyl)-5-(3-methoxybenzylidene)imidazolidine-2,4-dione]: the Ki at α1-receptor [2] amounted to 75.9 ± 2.3 nM; on human 5-HT1A receptor, 557 nM; at human 5-HT7b receptor, 79 nM; on human 5-HT6 receptor, 19200 nM.
With `COc1ccc(/C=C2\NC(=O)N(CC(O)CN3CCN(c4ccccc4OC)CC3)C2=O)cc1` (stereo not shown) [Compound 6, (Z)-3-(2-hydroxy-3-(4-(2-methoxyphenyl)piperazin-1-yl)propyl)-5-(4-methoxybenzylidene)imidazolidine-2,4-dione], the melting point lay in the range of 176 to 178 °C. Further, affinity at α1-receptor [2] was put at a Ki of 145 ± 13.3 nM. This compound gave a Ki at human 5-HT1A receptor of 282 nM. The same compound came in with a Ki at human 5-HT7b receptor of 197 nM. For the same compound, the Ki at human 5-HT6 receptor came to 20400 nM.
`CCOc1ccccc1N1CCN(CC(O)CN2C(=O)N/C(=C\c3ccc(OC)cc3)C2=O)CC1` (stereo not shown) [Compound 7, (Z)-3-(3-(4-(2-ethoxyphenyl)piperazin-1-yl)-2-hydroxypropyl)-5-(4-methoxybenzylidene)imidazolidine-2,4-dione]: the inhibition constant (Ki) on α1-receptor [2] worked out at 99.1 ± 11.3 nM; on human 5-HT1A receptor, 313 nM; at human 5-HT7b receptor, 120 nM; at human 5-HT6 receptor, 10200 nM.
As to `COc1ccc(/C=C2\NC(=O)N(CC(O)CN3CCN(c4ccccc4F)CC3)C2=O)cc1` (stereo not shown) [Compound 8, (Z)-3-(3-(4-(2-fluorophenyl)piperazin-1-yl)-2-hydroxypropyl)-5-(4-methoxybenzylidene)imidazolidine-2,4-dione], the melting point was 104 to 106 °C. The affinity at α1-receptor [2] corresponds to a Ki of 144 ± 7.9 nM. The same compound gave a Ki on human 5-HT1A receptor of 3530 nM. On human 5-HT7b receptor, this compound showed a Ki of 1040 nM. In addition, the Ki on human 5-HT6 receptor was determined as 11700 nM.
On to `CCOc1ccccc1N1CCN(CC(O)CN2C(=O)N/C(=C\c3cc(OC)c(OC)c(OC)c3)C2=O)CC1` (stereo not shown) [Compound 9, (Z)-3-(3-(4-(2-ethoxyphenyl)piperazin-1-yl)-2-hydroxypropyl)-5-(3,4,5-trimethoxybenzylidene)imidazolidine-2,4-dione], for which the melting point was 104 to 106 °C. On α1-receptor [2], this compound came in with a Ki of 89.5 ± 9 nM. On human 5-HT1A receptor, this compound had an inhibitory constant (Ki) of 1870 nM. This compound also gave a Ki at human 5-HT7b receptor of 1250 nM. The Ki on human 5-HT6 receptor stood at 2830 nM.
In the case of `CCOc1ccccc1N1CCN(CCCN2C(=O)N/C(=C\c3cccc(OC)c3)C2=O)CC1` [Compound 10, (Z)-3-(3-(4-(2-ethoxyphenyl)piperazin-1-yl)propyl)-5-(3-methoxybenzylidene)imidazolidine-2,4-dione], the IC50 was found to be 9.2 ± 1.3 nM on α1B-AR and 7.2 ± 1.1 nM on α1A-AR. Besides, the Ki was 20.2 ± 4.1 nM on α1-receptor [2] and 103 nM on human 5-HT1A receptor.
Compound `COc1cccc(/C=C2\NC(=O)N(CCCN3CCN(c4ccccc4Cl)CC3)C2=O)c1` [Compound 11, (Z)-3-(3-(4-(2-chlorophenyl)piperazin-1-yl)propyl)-5-(3-methoxybenzylidene)imidazolidine-2,4-dione] showed a melting point of 144 to 146 °C. Moreover, affinity on α1-receptor [2] was put at a Ki of 44.8 ± 3.3 nM. Moreover, affinity at human 5-HT1A receptor was put at a Ki of 319 nM. The same compound came in with a Ki on human 5-HT7b receptor of 152 nM. Also, on human 5-HT6 receptor, the affinity corresponds to a Ki of 1720 nM.
For the compound `COc1ccc(/C=C2\NC(=O)N(CCCN3CCN(c4ccccc4OC)CC3)C2=O)cc1` [Compound 12, (Z)-5-(4-methoxybenzylidene)-3-(3-(4-(2-methoxyphenyl)piperazin-1-yl)propyl)imidazolidine-2,4-dione], the IC50 stood at 8.5 ± 1.1 nM on α1B-AR and 12.8 ± 2.5 nM at α1A-AR. Further, the Ki turned out to be 34.6 ± 4.6 nM on α1-receptor [2], 20.6 nM at human 5-HT1A receptor, 101 nM on human 5-HT7b receptor and 22000 nM on human 5-HT6 receptor.
On to `CCOc1ccccc1N1CCN(CCCN2C(=O)N/C(=C\c3ccc(OC)cc3)C2=O)CC1` [Compound 13, (Z)-3-(3-(4-(2-ethoxyphenyl)piperazin-1-yl)propyl)-5-(4-methoxybenzylidene)imidazolidine-2,4-dione], for which the melting point lay in the range of 180 to 183 °C. The affinity at α1-receptor [2] corresponds to a Ki of 19.5 ± 2.6 nM. At human 5-HT1A receptor, this compound registered an inhibition constant Ki of 45.8 nM. The Ki at human 5-HT7b receptor is 114 nM. The compound also came in with an inhibitory constant (Ki) on human 5-HT6 receptor above 50000 nM.
Take `COc1ccc(/C=C2\NC(=O)N(CCCN3CCN(c4ccccc4OC)CC3)C2=O)cc1OC` [Compound 14]: the IC50 is 182 ± 21.4 nM on α1B-AR and 57.6 ± 7.2 nM at α1A-AR. Also, the Ki was 11.9 ± 2.2 nM on α1-receptor [2], 128 nM on human 5-HT1A receptor, 189 nM on human 5-HT7b receptor and 15800 nM at human 5-HT6 receptor.
On to `COc1ccccc1N1CCN(CCCN2C(=O)N/C(=C\c3cc(OC)c(OC)c(OC)c3)C2=O)CC1` [Compound 15, (Z)-3-(3-(4-(2-methoxyphenyl)piperazin-1-yl)propyl)-5-(3,4,5-trimethoxybenzylidene)imidazolidine-2,4-dione], for which the melting point was 130 to 132 °C. Besides, the Ki at α1-receptor [2] came to 25.8 ± 2.9 nM. The affinity on human 5-HT1A receptor corresponds to a Ki of 172 nM. The compound also had a Ki at human 5-HT7b receptor of 668 nM. This compound also showed a Ki on human 5-HT6 receptor of 12300 nM.
On to `CCOc1ccccc1N1CCN(CCCN2C(=O)N/C(=C\c3cc(OC)c(OC)c(OC)c3)C2=O)CC1` [Compound 16, (Z)-3-(3-(4-(2-ethoxyphenyl)piperazin-1-yl)propyl)-5-(3,4,5-trimethoxybenzylidene)imidazolidine-2,4-dione], for which the values for the IC50 at α1B-AR and on α1A-AR were 0.82 ± 0.1 nM and 19.1 ± 3.4 nM, respectively. Also, the Ki at α1-receptor [2] came out at 14.7 ± 1.1 nM; at human 5-HT1A receptor it was 165 nM; at human 5-HT7b receptor it was 138 nM; at human 5-HT6 receptor, 15200 nM.
Take `CCOc1ccccc1OCCN[C@H](C)Cc1ccc(OC)c(S(N)(=O)=O)c1` [Tamsulosin, reference compound]: the IC50 at α1B-AR was found to be 0.13 ± 0.02 nM.
As for `Cc1ccc(N(CC2=NCCN2)c2cccc(O)c2)cc1` [fentolamine, reference compound], the inhibition constant Ki at α1-receptor [2] turned out to be 15.7 ± 1.5 nM.
